From patent US20030129204A1, “Vaccines against helminthic parasites” (priority 1994, published 2003)
Where two headings read alike, the source gives them in different places. Where a SMILES comes first, the peptide text is derived from it. [ ]: non-standard residue; d: D form. The star is where a group is joined. Sta = CC(C)C[C@H](N)[C@@H](O)CC(=O)O; Isovaleryl = CC(C)CC(=O)*

Assays:
[1] = tested on: TSBP proteinases; experiment: Gelatin-substrate gel analysis of TSBP proteinases with inhibitors (O. circumcincta); format: biochemical
Experimental: (§1) TSBP were fractionated by non-reducing SDS-PAGE in 7.5% gel slabs containing 0.1% gelatin. The electrode buffer (Laemmli, 1977) was chilled on ice prior to use. After electrophoresis, SDS was eluted from the gel by extensive washing with 2.5% Triton X-100 for 30 minutes. Gel slabs were incubated overnight at 37° C. in 0.1M acetate buffer pH 5, 2 mM with respect to DTT or 0.1M Tris, pH 8.5. For some experiments TSBP were incubated with proteinase inhibitors prior to electrophoresis and inhibitors were also included in the incubation buffer at the final concentrations indicated above. Proteinases were visualised by Coomassie blue counter-staining.
Proteinase activity associated with TSBP was monitored using gelatin-substrate gel analysis as described in Example 2 (paragraph (b)) to enable the characterisation of individual proteinases.

[2] = tested on: TSBP proteinases; format: biochemical, H. contortus; conditions: for proteolysis reduced in the presence of inhibitor (percent activity lost): pH 8.5
Experimental: TSBP (2 μg protein in 10 μl) were mixed with 1OO μl sterile buffer (0.1M acetate, pH5) and 20 μl azocasein (1 mg/ml) in the same buffet. The reaction mixture was supplemented with penicillin (500 iu/ml) and streptomycin (5 mg/ml), vortexed briefly and then incubated overnight at 37° C. Undigested protein was precipitated by the addition of 1M perchloric acid (13O μl) and incubation on ice for 30 minutes. Following centrifugation at 11,000 g for 5 minutes the 0D405 of the resulting supernatant was determined. Blank reactions, containing sterile water instead of TSBP, were run in parallel. The optimal pH for enzyme activity was determined in a series of reactions using buffers over the pH range 3 to 10.
The effects of various proteinase inhibitors on TSBP proteinases were monitored by incubating TSBP with buffer supplemented with inhibitor for 30 minutes prior to addition of azocasein and antibiotics. Inhibitors tested and the final reaction concentrations were phenylmethanesulphonylfluoride (PMSF, 1.0 mM), L-transepoxysuccinyl-L-leucylamido-(4-guanidino)-butane (E64, 100 μM), ethylenediaminetetraacetic-acid (EDTA, 1.0 mM) and pepstatin (10 μM).

[3] = tested on: TSBP proteinases; experiment: Gelatin-substrate gel analysis of TSBP proteinases with inhibitors (H. contortus); format: biochemical; conditions: for 70 kDa proteinase activity / 88 kDa proteinase activity: pH 8.5, PMSF 1.0 mM or EDTA 1.0 mM
Experimental: as §1

[4] = pH 5, azocasein, PMSF 1.0 mM, EDTA 1.0 mM, pepstatin 10 μM

Row | Structure (SMILES) | 97 kDa protease ([1]; pH 8.5) | 70 kDa proteinase activity [3] | 88 kDa proteinase activity [3] | percent activity lost in comparison to a control preparation in the absence of the inhibitor [2, 4] [%] | other results
1 | c1cnc2c(c1)ccc1cccnc12 [1,10 Phe] | inhibited |  |  |  | 
2 | CC(C)C[C@H](NC(=O)[C@H]1O[C@@H]1C(=O)O)C(=O)NCCCCN=C(N)N [E64, L-transepoxysuccinyl-L-leucylamido-(4-guanidino)-butane] |  |  |  |  | TSBP proteinase activity in the presence of inhibitor ([2]; pH 5, azocasein, E64 100 μM): eliminated; zones of proteolysis at 37-38, 52, 70 and 100 kDa ([3]; pH 5, E64 100 μM): abolished; zones of proteolysis at 40, 50 and 70 kDa and stack/separating gel interface ([1]; pH 5): completely inhibited
3 | O=C(O)CN(CCN(CC(=O)O)CC(=O)O)CC(=O)O [EDTA, ethylenediaminetetraacetic-acid] |  | markedly reduced | completely inhibited |  | percent activity lost in comparison to a control preparation in the absence of the inhibitor ([2]; pH 5): 11%; proteolysis reduced in the presence of inhibitor (percent activity lost) [2]: 43%
4 | O=S(=O)(F)Cc1ccccc1 [PMSF, phenylmethanesulphonylfluoride] | inhibited | markedly reduced | completely inhibited | 28 | proteolysis reduced in the presence of inhibitor (percent activity lost) ([2]; azocasein, PMSF 1.0 mM, EDTA 1.0 mM): 52%; 85 kDa doublet proteolysis ([1]; pH 8.5): inhibited
5 | CC(C)CC(=O)N[C@H](C(=O)N[C@H](C(=O)N[C@@H](CC(C)C)[C@@H](O)CC(=O)N[C@@H](C)C(=O)N[C@@H](CC(C)C)[C@@H](O)CC(=O)O)C(C)C)C(C)C [Pepstatin, pepstatin] (Isovaleryl-VV[Sta]A[Sta]-OH) |  |  |  | 6 | 
